The record followed here is patent EP4818168A1, “FUSED RING COMPOUND, PHARMACEUTICAL COMPOSITION THEREOF AND USE THEREOF” (priority 2023, dated 2025).

Read-outs that look alike come from different tables or passages of the source.

What all share (assay type): cell-based
One test deals with T1, AURKA (Homo sapiens, UniProt O14965).
T1 construct: endogenous in cells; host or cells: Jurkat cells
T1 sequence (O14965 1-403): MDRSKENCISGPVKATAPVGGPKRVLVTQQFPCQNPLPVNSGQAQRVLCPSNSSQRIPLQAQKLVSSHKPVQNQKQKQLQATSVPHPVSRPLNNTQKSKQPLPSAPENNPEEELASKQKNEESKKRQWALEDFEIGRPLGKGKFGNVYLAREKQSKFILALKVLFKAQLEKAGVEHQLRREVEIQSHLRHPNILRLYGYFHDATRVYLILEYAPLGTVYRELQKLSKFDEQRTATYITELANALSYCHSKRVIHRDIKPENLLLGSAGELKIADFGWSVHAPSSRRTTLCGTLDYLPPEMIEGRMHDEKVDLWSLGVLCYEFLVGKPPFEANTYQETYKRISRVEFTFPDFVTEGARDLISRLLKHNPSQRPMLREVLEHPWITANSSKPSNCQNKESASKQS
The method, boiled down: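 AURKA degradation read by western blot: band signal, fluorescent or chemiluminescent, curve-fitted to derive DC50. Cells were Jurkat, plated at 1×10^6 cells/500 µL with compound, then lysed and blotted onto nitrocellulose, primary antibody overnight at 4°C.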

The next test has as its system HCC1806 cells. Nature of the test: CTG assay of compound inhibition on cell viability (HCC1806 cells). As to conditions: Homo sapiens, read-out: IC50 in HCC1806 Cells. How it is done:
CellTiter-Glo (CTG) is a rapid cell viability test method based on ATP detection. […] Adenosine triphosphate (ATP) participates in various enzymatic reactions in organisms and is an indicator of living cell metabolism. Its content directly reflects the number of living cells and cell status. During the experiment, equal volume of CTG reagent is added to the cultured cells to measure the luminescence value. The chemiluminescent signal value is proportional to the amount of ATP, thus reflecting the number of viable cells. Therefore, cell viability can be obtained by detecting the ATP content. Compounds that affect cell viability will inhibit cell viability in a concentration-dependent manner, allowing a curve to be fitted to obtain the IC50 value.
The experimental procedure is as follows: • 11. Place the cell suspension in a 15 mL centrifuge tube, centrifuge at 1000 rpm for 5 min at room temperature, discard the supernatant, and collect the cell pellet. • 12. Resuspend the cell pellet with preheated complete cell culture medium (RPMI1640+10%FBS+1%PS), and use a Countess® automated cell counter to detect cell viability and density. The cell viability must be above 90%. • 13. […] Transfer the compound solution to a 96-well plate seeded with cells (final concentration of DMSO 0.1%), and place in a cell incubator at 37°C, 5% CO2 for 6 days. • 15. […] Protect from light during the whole process. Perform optical signal readings using a SpectraMax i3x reader. • 16. Data analysis: Remaining activity (%) = 100% * (1 - ((LumDMSO - Lummedium) - Lumsample) / (LumDMSO - LumPBS/medium)). Use GraphPad Prism 9.0 software to draw an S-shaped dose-survival rate curve and calculate the IC50 value using a nonlinear regression model.

The next test deals with H82 cells. The test can be described thus: cells. Particulars: Homo sapiens, NCI-H82; H82 cells, 4000 cells/well, CellTiter-Glo; read-out: IC50 in H82 Cells. The procedure, abridged:
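After 6 days' compound treatment at 37 °C (final DMSO 0.1%, RPMI1640/10% FBS), viable H82 cells were quantified by ATP-dependent CellTiter-Glo luminescence. Remaining activity was calculated against DMSO and medium wells, and a sigmoidal fit gave IC50.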
(ATP-based viability assays read luminescence as a measure of living cells.)

The mark [1] stands for this setting: 100 nM compound, Jurkat cells, 24 h, Table 1.
Where [2] appears, read: 1 µM compound, Jurkat cells, 24 h, Table 1.
The mark [3] stands for this setting: 144 h, HCC1806 cells, 6 days, CellTiter-Glo.

What is called IC50 is the concentration at which inhibition is half-maximal. For `COc1cc(Nc2ncc3c(n2)-c2ccc(Cl)cc2C(c2c(F)cccc2OC)=NC3)ccc1C(=O)N[C@H]1C[C@H](C#Cc2cccc3c2CN(C2CCC(=O)NC2=O)C3=O)C1` (relative stereo) [Compound A7], on AURKA, the “Percentage of AURKA Degradation Induced by 100 nM Compound in Jurkat Cells” value (from here on “Percentage … by 100 nM Compound in Jurkat Cells”) is on record as “++ (key: +: Degradation ≤ 30%; ++: 30% < Degradation ≤ 70%; +++: Degradation > 70%)” and the “Percentage of AURKA Degradation Induced by 1 µM Compound in Jurkat Cells” value (from here on “Percentage … by 1 µM Compound in Jurkat Cells”) is on record as “++ (key: +: Degradation ≤ 30%; ++: 30% < Degradation ≤ 70%; +++: Degradation > 70%)”. The IC50 with HCC1806 cells (HCC1806, 144 h) fell in the range of 1 to 10 µM.

On to `O=C1CCC(N2C(=O)c3cccc(NCCOCCNC(=O)c4ccc(Nc5ncc6c(n5)-c5ccc(Cl)cc5C(c5c(F)cccc5F)=NC6)cc4)c3C2=O)C(=O)N1` (centres unmarked) [Compound A1], for which the “Percentage … by 100 nM Compound in Jurkat Cells” value on AURKA (setting [1]) was “++ (30% < Degradation ≤ 70%)”. In addition, on AURKA (setting [2]), the “Percentage … by 1 µM Compound in Jurkat Cells” value is “++ (30% < Degradation ≤ 70%)”. Further, the half-maximal inhibitory concentration (IC50) in the test on HCC1806 cells (setting [3]) was less than 1 µM.

In the case of `COc1cc(Nc2ncc3c(n2)-c2ccc(Cl)cc2C(c2c(F)cccc2OC)=NC3)ccc1C(=O)N(C)CCCCCNc1cccc2c1C(=O)N(C1CCC(=O)NC1=O)C2=O` (centres unmarked) [Compound A2], the “Percentage … by 100 nM Compound in Jurkat Cells” value on AURKA (setting [1]) is recorded as “++ (30% < Degradation ≤ 70%)”. Besides, at AURKA (setting [2]), the “Percentage … by 1 µM Compound in Jurkat Cells” value is listed as “++ (30% < Degradation ≤ 70%)”. In addition, the IC50 in the test with HCC1806 cells (setting [3]) was less than 1 µM.

Consider `COc1cc(Nc2ncc3c(n2)-c2ccc(Cl)cc2C(c2c(F)cccc2OC)=NC3)ccc1C(=O)NC1CN(CCOc2cccc3c2C(=O)N(C2CCC(=O)NC2=O)C3=O)C1` (centres unmarked) [Compound A5], for which the “Percentage … by 100 nM Compound in Jurkat Cells” value at AURKA (setting [1]) is on record as “++ (30% < Degradation ≤ 70%)”. Moreover, the “Percentage … by 1 µM Compound in Jurkat Cells” value at AURKA (setting [2]) is given as “++ (30% < Degradation ≤ 70%)”. In addition, in the test with HCC1806 cells (setting [3]), the IC50 was less than 1 µM.

As for `COc1cc(Nc2ncc3c(n2)-c2ccc(Cl)cc2C(c2c(F)cccc2OC)=NC3)ccc1C(=O)NCCN1CCN(c2ccc(N3CCC(=O)NC3=O)cc2)CC1` [Compound A8], the “Percentage … by 100 nM Compound in Jurkat Cells” value at AURKA (setting [1]) is given as “+++ (Degradation > 70%)”. Further, the “Percentage … by 1 µM Compound in Jurkat Cells” value at AURKA (setting [2]) is given as “+++ (Degradation > 70%)”. Besides, in the test with HCC1806 cells (setting [3]), the IC50 is less than 1 µM.

In the case of `O=C1CCN(c2ccc(N3CCN(CCNC(=O)c4ccc(Nc5ncc6c(n5)-c5ccc(Cl)cc5C(c5c(F)cccc5F)=NC6)cc4)CC3)cc2)C(=O)N1` [Compound A10], the “Percentage … by 100 nM Compound in Jurkat Cells” value on AURKA (setting [1]) was “++ (30% < Degradation ≤ 70%)”. Also, on AURKA (setting [2]), the “Percentage … by 1 µM Compound in Jurkat Cells” value is “++ (30% < Degradation ≤ 70%)”. For the same compound, the IC50 in the test with HCC1806 cells (HCC1806, 144 h) is less than 1 µM.

As to `CN(CCN1CCN(c2ccc(N3CCC(=O)NC3=O)cc2)CC1)C(=O)c1ccc(Nc2ncc3c(n2)-c2ccc(Cl)cc2C(c2c(F)cccc2F)=NC3)cc1` [Compound A11], on AURKA (setting [1]), the “Percentage … by 100 nM Compound in Jurkat Cells” value is reported as “+++ (Degradation > 70%)”. Besides, the “Percentage … by 1 µM Compound in Jurkat Cells” value on AURKA (setting [2]) is recorded as “++ (30% < Degradation ≤ 70%)”. Further, the IC50 in the test with HCC1806 cells (HCC1806, 144 h) is less than 1 µM.

On to `O=C1CCN(c2ccc(N3CCC(CNC(=O)c4ccc(Nc5ncc6c(n5)-c5ccc(Cl)cc5C(c5c(F)cccc5F)=NC6)cc4)CC3)cc2)C(=O)N1` [Compound A12], for which, on AURKA (setting [1]), the “Percentage … by 100 nM Compound in Jurkat Cells” value is “+ (Degradation ≤ 30%)”. In addition, at AURKA (setting [2]), the “Percentage … by 1 µM Compound in Jurkat Cells” value was “+ (Degradation ≤ 30%)”. For the same compound, the IC50 with HCC1806 cells (HCC1806, 144 h) was less than 1 µM.

As to `COc1cc(Nc2ncc3c(n2)-c2ccc(Cl)cc2C(c2c(F)cccc2OC)=NC3)ccc1C(=O)NC1CC(C#Cc2cccc(N3CCC(=O)NC3=O)c2)C1` (centres unmarked) [Compound A50], the IC50 in the test on HCC1806 cells (HCC1806, 144 h) is less than 1 µM.

As for `O=C1CCN(c2cccc(C#CC34CC(NC(=O)c5ccc(Nc6ncc7c(n6)-c6ccc(Cl)cc6C(c6c(F)cccc6F)=NC7)cc5)(C3)C4)c2)C(=O)N1` [Compound A76], in the test on HCC1806 cells (HCC1806, 144 h), the IC50 was 1 to 10 µM.

Take `Cn1nc(N2CCC(=O)NC2=O)c2ccc(N3CCC4(CC3)CC(N3CCN(c5ccc(Nc6ncc7c(n6)-c6ccc(Cl)cc6C(c6c(F)cccc6F)=NC7)cc5)CC3)CO4)cc21` (centres unmarked) [Compound A365]: the “Percentage … by 100 nM Compound in Jurkat Cells” value on AURKA (100 nM compound, Jurkat cells, 24 h, Table 2) was “+++ (Degradation > 70%)”. For the same compound, the “Percentage … by 1 µM Compound in Jurkat Cells” value on AURKA (1 µM compound, Jurkat cells, 24 h, Table 2) is recorded as “+++ (Degradation > 70%)”. Further, the concentration for half-maximal inhibition (IC50) in the test on H82 cells was less than 1 µM.
